Results taken from PMC6081437, “The potency of the broad spectrum bacteriocin, bactofencin A, against staphylococci is highly dependent on primary structure, N-terminal charge and disulphide formation” (Scientific Reports, 2018).
Bridge positions count the residues as written; N and C are the ends. Square brackets hold non-standard residues; d marks the D form. Peptide text beside a SMILES is read from it.

System: S. aureus DPC5246
Assay type: cell-based, Staphylococcus aureus
Settings: DPC5246, pH 6.8
Description: Peptides were resuspended at 1000 µM in 50 mM sodium phosphate buffer pH 6.8 and checked for purity by MALDI-TOF-MS. Peptides were serially diluted 1 in 4 to give a dilution series of 250, 62.50, 15.63, 3.91, 0.98 and 0.24 µM and assayed by the agar well diffusion assay described by Ryan et al.[19]. Briefly, 50 µl aliquots of each peptide concentration were plated on a S. aureus DPC5246 indicator plate and the plate incubated at 37 °C. Peptide activity (Minimum Inhibitory Concentration (MIC)) was taken as the lowest concentration of peptide to give a zone of inhibition. All assays were performed in triplicate. The dilution series values were rounded to the nearest whole number to give 1000, 250, 63, 16, 4, 1 and 0.25 µM and data is colour coded for ease of interpretation.

Row | SMILES | Activity (Minimum Inhibitory Concentration, MIC)
1 | CSCC[C@@H]1NC(=O)CNC(=O)[C@H]([C@@H](C)O)NC(=O)[C@@H]2CCCN2C(=O)[C@H](CCSC)NC(=O)CNC(=O)[C@H](CC(N)=O)NC(=O)[C@H](CC(N)=O)NC(=O)[C@H](Cc2ccc(O)cc2)NC(=O)[C@H](C(C)C)NC(=O)[C@H](CCCNC(=N)N)NC(=O)[C@@H](N)CSSC[C@@H](C(=O)O)NC(=O)[C@H](Cc2c[nH]c3ccccc23)NC(=O)[C@H](CCCNC(=N)N)NC(=O)[C@H](Cc2ccc(O)cc2)NC1=O [C7-C22] (H-CRVYNNGMPTGMYRWC-OH; disulfide 1-16; N-terminus assumed) | > 1000 µM
2 | CSCC[C@@H]1NC(=O)CNC(=O)[C@H]([C@@H](C)O)NC(=O)[C@@H]2CCCN2C(=O)[C@H](CCSC)NC(=O)CNC(=O)[C@H](CC(N)=O)NC(=O)[C@H](CC(N)=O)NC(=O)[C@H](Cc2ccc(O)cc2)NC(=O)[C@H](C(C)C)NC(=O)[C@H](CCCNC(=N)N)NC(=O)[C@@H](NC(=O)[C@H](CCCNC(=N)N)NC(=O)[C@H](Cc2c[nH]cn2)NC(=O)[C@H](CCCCN)NC(=O)[C@H](CCCCN)NC(=O)[C@H](CCCNC(=N)N)NC(=O)[C@@H](N)CCCCN)CSSC[C@@H](C(=O)O)NC(=O)[C@H](Cc2c[nH]c3ccccc23)NC(=O)[C@@H](CCCNC(=N)N)NC(=O)[C@H](Cc2ccc(O)cc2)NC1=O [R20Rd] (H-KRKKHRCRVYNNGMPTGMY[dR]WC-OH; disulfide 7-22; N-terminus assumed) | 4 µM
3 | CSCC[C@@H]1NC(=O)CNC(=O)[C@H]([C@@H](C)O)NC(=O)[C@@H]2CCCN2C(=O)[C@H](CCSC)NC(=O)CNC(=O)[C@H](CC(N)=O)NC(=O)[C@H](CC(N)=O)NC(=O)[C@H](Cc2ccc(O)cc2)NC(=O)[C@H](C(C)C)NC(=O)[C@H](CCCNC(=N)N)NC(=O)[C@@H](NC(=O)[C@H](CCCNC(=N)N)NC(=O)[C@H](Cc2c[nH]cn2)NC(=O)[C@H](CCCCN)NC(=O)[C@H](CCCCN)NC(=O)[C@H](CCCNC(=N)N)NC(=O)[C@@H](N)CCCCN)CSSC[C@@H](C(=O)O)NC(=O)[C@H](C)NC(=O)[C@H](CCCNC(=N)N)NC(=O)[C@H](Cc2ccc(O)cc2)NC1=O [W21A] (H-KRKKHRCRVYNNGMPTGMYRAC-OH; disulfide 7-22) | 1 µM
4 | CSCC[C@@H]1NC(=O)CNC(=O)[C@H]([C@@H](C)O)NC(=O)[C@@H]2CCCN2C(=O)[C@H](CCSC)NC(=O)CNC(=O)[C@H](CC(N)=O)NC(=O)[C@H](CC(N)=O)NC(=O)[C@H](Cc2ccc(O)cc2)NC(=O)[C@H](C(C)C)NC(=O)[C@H](CCCNC(=N)N)NC(=O)[C@@H](NC(=O)[C@H](CCCNC(=N)N)NC(=O)[C@H](Cc2c[nH]cn2)NC(=O)[C@H](CCCCN)NC(=O)[C@H](CCCCN)NC(=O)[C@H](CCCNC(=N)N)NC(=O)[C@@H](N)CCCCN)CSSC[C@@H](C(=O)O)NC(=O)[C@@H](Cc2c[nH]c3ccccc23)NC(=O)[C@H](CCCNC(=N)N)NC(=O)[C@H](Cc2ccc(O)cc2)NC1=O [W21Wd] (H-KRKKHRCRVYNNGMPTGMYR[dW]C-OH; disulfide 7-22; N-terminus assumed) | 4 µM
5 | CSCC[C@@H]1NC(=O)CNC(=O)[C@H]([C@@H](C)O)NC(=O)[C@@H]2CCCN2C(=O)[C@H](CCSC)NC(=O)CNC(=O)[C@H](CC(N)=O)NC(=O)[C@H](CC(N)=O)NC(=O)[C@H](Cc2ccc(O)cc2)NC(=O)[C@H](C(C)C)NC(=O)[C@H](CCCNC(=N)N)NC(=O)[C@@H](NC(=O)[C@@H](N)CCCNC(=N)N)CSSC[C@@H](C(=O)O)NC(=O)[C@H](Cc2c[nH]c3ccccc23)NC(=O)[C@H](CCCNC(=N)N)NC(=O)[C@H](Cc2ccc(O)cc2)NC1=O [R6-C22] (H-RCRVYNNGMPTGMYRWC-OH; disulfide 2-17; N-terminus assumed) | 63 µM
6 | CSCC[C@@H]1NC(=O)CNC(=O)[C@H]([C@@H](C)O)NC(=O)[C@@H]2CCCN2C(=O)[C@H](CCSC)NC(=O)CNC(=O)[C@H](CC(N)=O)NC(=O)[C@H](CC(N)=O)NC(=O)[C@H](Cc2ccc(O)cc2)NC(=O)[C@H](C(C)C)NC(=O)[C@H](CCCNC(=N)N)NC(=O)[C@@H](NC(=O)[C@H](CCCNC(=N)N)NC(=O)[C@@H](N)Cc2c[nH]cn2)CSSC[C@@H](C(=O)O)NC(=O)[C@H](Cc2c[nH]c3ccccc23)NC(=O)[C@H](CCCNC(=N)N)NC(=O)[C@H](Cc2ccc(O)cc2)NC1=O [H5-C22] (H-HRCRVYNNGMPTGMYRWC-OH; disulfide 3-18; N-terminus assumed) | 16 µM
7 | CSCC[C@@H]1NC(=O)CNC(=O)[C@H]([C@@H](C)O)NC(=O)[C@@H]2CCCN2C(=O)[C@H](CCSC)NC(=O)CNC(=O)[C@H](CC(N)=O)NC(=O)[C@H](C)NC(=O)[C@H](Cc2ccc(O)cc2)NC(=O)[C@H](C(C)C)NC(=O)[C@H](CCCNC(=N)N)NC(=O)[C@@H](NC(=O)[C@H](CCCNC(=N)N)NC(=O)[C@H](Cc2c[nH]cn2)NC(=O)[C@H](CCCCN)NC(=O)[C@H](CCCCN)NC(=O)[C@H](CCCNC(=N)N)NC(=O)[C@@H](N)CCCCN)CSSC[C@@H](C(=O)O)NC(=O)[C@H](Cc2c[nH]c3ccccc23)NC(=O)[C@H](CCCNC(=N)N)NC(=O)[C@H](Cc2ccc(O)cc2)NC1=O [N11A] (H-KRKKHRCRVYANGMPTGMYRWC-OH; disulfide 7-22) | 16 µM
8 | CSCC[C@@H]1NC(=O)CNC(=O)[C@H]([C@@H](C)O)NC(=O)[C@@H]2CCCN2C(=O)[C@H](CCSC)NC(=O)CNC(=O)[C@H](CC(N)=O)NC(=O)[C@H](CC(N)=O)NC(=O)[C@@H](Cc2ccc(O)cc2)NC(=O)[C@H](C(C)C)NC(=O)[C@H](CCCNC(=N)N)NC(=O)[C@@H](NC(=O)[C@H](CCCNC(=N)N)NC(=O)[C@H](Cc2c[nH]cn2)NC(=O)[C@H](CCCCN)NC(=O)[C@H](CCCCN)NC(=O)[C@H](CCCNC(=N)N)NC(=O)[C@@H](N)CCCCN)CSSC[C@@H](C(=O)O)NC(=O)[C@H](Cc2c[nH]c3ccccc23)NC(=O)[C@H](CCCNC(=N)N)NC(=O)[C@H](Cc2ccc(O)cc2)NC1=O [Y10Yd] (H-KRKKHRCRV[dY]NNGMPTGMYRWC-OH; disulfide 7-22; N-terminus assumed) | > 1000 µM
9 | CSCC[C@@H]1NC(=O)CNC(=O)[C@H]([C@@H](C)O)NC(=O)[C@@H]2CCCN2C(=O)[C@H](CCSC)NC(=O)CNC(=O)[C@H](CC(N)=O)NC(=O)[C@H](CC(N)=O)NC(=O)[C@H](Cc2ccc(O)cc2)NC(=O)[C@H](C(C)C)NC(=O)[C@H](CCCNC(=N)N)NC(=O)[C@@H](NC(=O)[C@H](CCCNC(=N)N)NC(=O)[C@H](Cc2c[nH]cn2)NC(=O)[C@H](CCCCN)NC(=O)[C@H](CCCCN)NC(=O)[C@@H](N)CCCNC(=N)N)CSSC[C@@H](C(=O)O)NC(=O)[C@H](Cc2c[nH]c3ccccc23)NC(=O)[C@H](CCCNC(=N)N)NC(=O)[C@H](Cc2ccc(O)cc2)NC1=O [R2-C22] (H-RKKHRCRVYNNGMPTGMYRWC-OH; disulfide 6-21; N-terminus assumed) | 1 µM
10 | CSCC[C@@H]1NC(=O)CNC(=O)[C@H](CC(N)=O)NC(=O)[C@H](CC(N)=O)NC(=O)[C@H](Cc2ccc(O)cc2)NC(=O)[C@H](C(C)C)NC(=O)[C@H](CCCNC(=N)N)NC(=O)[C@@H](NC(=O)[C@H](CCCNC(=N)N)NC(=O)[C@H](Cc2c[nH]cn2)NC(=O)[C@H](CCCCN)NC(=O)[C@H](CCCCN)NC(=O)[C@H](CCCNC(=N)N)NC(=O)[C@@H](N)CCCCN)CSSC[C@@H](C(=O)O)NC(=O)[C@H](Cc2c[nH]c3ccccc23)NC(=O)[C@H](CCCNC(=N)N)NC(=O)[C@H](Cc2ccc(O)cc2)NC(=O)[C@H](CCSC)NC(=O)CNC(=O)[C@H]([C@@H](C)O)NC(=O)[C@H](C)NC1=O [P15A] (H-KRKKHRCRVYNNGMATGMYRWC-OH; disulfide 7-22) | 1 µM
11 | CSCC[C@@H]1NC(=O)CNC(=O)[C@H]([C@@H](C)O)NC(=O)[C@@H]2CCCN2C(=O)[C@H](CCSC)NC(=O)CNC(=O)[C@H](CC(N)=O)NC(=O)[C@H](CC(N)=O)NC(=O)[C@H](Cc2ccc(O)cc2)NC(=O)[C@H](C(C)C)NC(=O)[C@@H](CCCNC(=N)N)NC(=O)[C@@H](NC(=O)[C@H](CCCNC(=N)N)NC(=O)[C@H](Cc2c[nH]cn2)NC(=O)[C@H](CCCCN)NC(=O)[C@H](CCCCN)NC(=O)[C@H](CCCNC(=N)N)NC(=O)[C@@H](N)CCCCN)CSSC[C@@H](C(=O)O)NC(=O)[C@H](Cc2c[nH]c3ccccc23)NC(=O)[C@H](CCCNC(=N)N)NC(=O)[C@H](Cc2ccc(O)cc2)NC1=O [R8Rd] (H-KRKKHRC[dR]VYNNGMPTGMYRWC-OH; disulfide 7-22; N-terminus assumed) | 63 µM
12 | CSCC[C@@H]1NC(=O)CNC(=O)[C@H]([C@@H](C)O)NC(=O)[C@@H]2CCCN2C(=O)[C@H](CCSC)NC(=O)CNC(=O)[C@H](CC(N)=O)NC(=O)[C@H](CC(N)=O)NC(=O)[C@H](Cc2ccc(O)cc2)NC(=O)[C@H](C(C)C)NC(=O)[C@H](CCCNC(=N)N)NC(=O)[C@@H](NC(=O)[C@H](CCCNC(=N)N)NC(=O)[C@H](Cc2c[nH]cn2)NC(=O)[C@H](CCCCN)NC(=O)[C@H](CCCCN)NC(=O)[C@H](CCCNC(=N)N)NC(=O)[C@H](C)N)CSSC[C@@H](C(=O)O)NC(=O)[C@H](Cc2c[nH]c3ccccc23)NC(=O)[C@H](CCCNC(=N)N)NC(=O)[C@H](Cc2ccc(O)cc2)NC1=O [K1A] (H-ARKKHRCRVYNNGMPTGMYRWC-OH; disulfide 7-22) | 1 µM

Same assay, conditions: S. aureus DPC5246, agar well diffusion

Row | SMILES | activity compared with bactofencin A, in words
13 | CSCC[C@@H]1NC(=O)CNC(=O)[C@H]([C@@H](C)O)NC(=O)[C@@H]2CCCN2C(=O)[C@H](CCSC)NC(=O)CNC(=O)[C@H](CC(N)=O)NC(=O)[C@H](CC(N)=O)NC(=O)[C@H](Cc2ccc(O)cc2)NC(=O)[C@H](C(C)C)NC(=O)[C@H](CCCNC(=N)N)NC(=O)[C@@H](NC(=O)[C@H](CCCNC(=N)N)NC(=O)[C@H](Cc2c[nH]cn2)NC(=O)[C@H](CCCCN)NC(=O)[C@H](CCCCN)NC(=O)[C@@H](N)CCCNC(=N)N)CSSC[C@@H](C(=O)O)NC(=O)[C@H](Cc2c[nH]c3ccccc23)NC(=O)[C@H](CCCNC(=N)N)NC(=O)[C@H](Cc2ccc(O)cc2)NC1=O [R2-C22] (H-RKKHRCRVYNNGMPTGMYRWC-OH; disulfide 6-21; N-terminus assumed) | no effect on activity

Same assay, conditions: S. aureus DPC5246, agar well diffusion MIC

Row | SMILES | fold reduction in activity compared with bactofencin A (wild type)
14 | CSCC[C@@H]1NC(=O)CNC(=O)[C@H]([C@@H](C)O)NC(=O)[C@@H]2CCCN2C(=O)[C@H](CCSC)NC(=O)CNC(=O)[C@H](CC(N)=O)NC(=O)[C@H](CC(N)=O)NC(=O)[C@H](Cc2ccc(O)cc2)NC(=O)[C@H](C(C)C)NC(=O)[C@@H](CCCNC(=N)N)NC(=O)[C@@H](NC(=O)[C@H](CCCNC(=N)N)NC(=O)[C@H](Cc2c[nH]cn2)NC(=O)[C@H](CCCCN)NC(=O)[C@H](CCCCN)NC(=O)[C@H](CCCNC(=N)N)NC(=O)[C@@H](N)CCCCN)CSSC[C@@H](C(=O)O)NC(=O)[C@H](Cc2c[nH]c3ccccc23)NC(=O)[C@H](CCCNC(=N)N)NC(=O)[C@H](Cc2ccc(O)cc2)NC1=O [R8Rd] (H-KRKKHRC[dR]VYNNGMPTGMYRWC-OH; disulfide 7-22; N-terminus assumed) | 63 fold
